This note sets out measurements from US10494357B2, “Tocotrienol derivatives, pharmaceutical composition and method of use in 5-lipoxygenase related diseases” (UNIVERSITÉ D'ANGERS, priority 2015, dated 2019).

Series [1] relates to 5-LO product formation in neutrophils. Description: 5-LO product formation in neutrophils. Conditions: for IC50: Homo sapiens, Neutrophil; for 5-LO product formation in neutrophils (A23187) residual activities [% vehicle control]: A23187 alone; for 5-LO product formation in neutrophils (AA + A23187) residual activities [% vehicle control]: A23187 plus 20 μM AA. The format is cell-based, human. The method, then:
Freshly isolated neutrophils (1×10^7/ml) were pre-incubated with the test compounds for 15 min at 37° C. Then, 5-LO product formation was started by addition of 2.5 μM Ca^2+-ionophore A23187 alone or A23187 plus 20 μM arachidonic acid (AA). The reaction was stopped after 10 min at 37° C. with 1 ml of methanol. Major 5-LO metabolites (LTB4 and its all-trans isomers and 5-H(P)ETE) were extracted and analyzed by HPLC as described (Werz: Blood 2002, 99, 1044-1052). Cysteinyl-LTs C4, D4 and E4 and oxidation products of LTB4 were not determined.

Another series has as its target T1, human recombinant 5-LO (Homo sapiens, UniProt P09917).
T1 construct: made in house; inferred to be the same preparation
T1 sequence (P09917 1-674): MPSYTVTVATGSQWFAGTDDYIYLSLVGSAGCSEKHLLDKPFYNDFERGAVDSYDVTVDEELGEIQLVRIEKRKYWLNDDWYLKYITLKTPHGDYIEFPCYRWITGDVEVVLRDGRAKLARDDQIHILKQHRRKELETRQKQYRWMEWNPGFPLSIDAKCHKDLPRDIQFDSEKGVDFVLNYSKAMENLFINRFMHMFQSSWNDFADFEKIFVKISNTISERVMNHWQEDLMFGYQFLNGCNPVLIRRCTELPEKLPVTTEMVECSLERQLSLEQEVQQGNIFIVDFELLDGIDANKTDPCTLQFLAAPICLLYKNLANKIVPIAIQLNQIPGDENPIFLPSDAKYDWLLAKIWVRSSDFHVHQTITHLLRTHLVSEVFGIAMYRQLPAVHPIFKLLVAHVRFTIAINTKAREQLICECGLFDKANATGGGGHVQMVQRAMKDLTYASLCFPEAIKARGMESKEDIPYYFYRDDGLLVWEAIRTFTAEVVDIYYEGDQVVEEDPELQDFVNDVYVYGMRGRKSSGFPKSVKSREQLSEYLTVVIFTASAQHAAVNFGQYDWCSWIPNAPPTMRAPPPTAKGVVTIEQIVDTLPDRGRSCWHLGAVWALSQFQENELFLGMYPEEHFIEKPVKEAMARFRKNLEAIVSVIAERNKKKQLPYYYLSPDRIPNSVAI
Description: Human recombinant 5-LO activity. The format is biochemical. As for the experimental part:
Methods for measuring the 5-LO activity are well-known from the skilled artisan. An example of such a method is disclosed in the Examples.
Human recombinant 5-LO was pre-incubated with the test compounds for 10 min at 4° C. and pre-warmed for 30 s at 37° C. 5-LO product formation was initiated by addition of 2 mM CaCl2 and 20 μM arachidonic acid. After 10 min at 37° C., the reaction was terminated by addition of 1 ml ice-cold methanol.

For the next series, the system named is HepaRG® cells. The experiment in a line: Hepatotoxicity assay. In kind it is cell-based. The conditions noted are these: 48 h. As for the experimental part: HepaRG® cells were seeded at a density of 2.6×10^4 cells/cm^2 in Williams' E medium supplemented with 2 mM glutamax, 100 U/mL penicillin, 100 μg/mL streptomycin, 10% Hyclone fetal calf serum, 5 μg/mL insulin, and […] hydrocortisone hemisuccinate. At confluence, after 2 weeks, HepaRG® cells were shifted to the same medium supplemented with 1.7% dimethyl sulfoxide for 2 additional weeks in order to obtain confluent differentiated cultures containing equal proportions of hepatocyte-like and progenitors/primitive biliary-like cell. These differentiated hepatic cell cultures were used for analytical assays.
Then, the cells were exposed to a tocotrienol derivative in Williams' E medium supplemented with 2% Hyclone fetal calf serum containing 0.2% dimethyl sulfoxide during 48 h.

A further series has as its system IL-1β. Description: IL-1β release from LPS-stimulated monocytes (ELISA). The format is cell-based. The conditions noted are these: LPS 10 ng/ml. As for the experimental part:
(§1) First, different concentrations of δ-amplexichromanol (0.1; 1 and 10 μM) were added to the stimulated monocytes.
(§2) Secondly, monocytes were stimulated with lipopolysaccharide (LPS, 10 ng/ml for 4-18 h) for inducing the formation of pro-inflammatory cytokines.
(§3) Finally, the resulting levels of proinflammatory cytokines were measured by ELISA. Dexamethasone (1 μM) was used as control.

The next series has as its system TNF-α. The experiment in a line: TNF-α release from LPS-stimulated monocytes (ELISA). In kind it is cell-based. The conditions noted are these: LPS 10 ng/ml. As for the experimental part:
as §1, §2, §3

In the next series the test system is IL-8. Description: IL-8 release from LPS-stimulated monocytes (ELISA). The conditions noted are these: LPS 10 ng/ml. The format is cell-based. The method, then: as §1, §2, §3
For another series, the system named is LTC4 formation. The experiment in a line: Zymosan-induced peritonitis in mice, LTC4 level in peritoneal exudate. The format is in vivo. Conditions: 10 mg/kg i.p. 30 min before zymosan, measured 30 min after zymosan injection. As for the experimental part:
Zymosan was used to trigger peritonitis in mice pre-treated with a-amplexichromanol or Zileuton, each at a dose of 10 mg/kg. The resulting LTC4 levels in the peritoneal exudate were measured 30 min after zymosan injection.
α-amplexichromanol (10 mg/kg) or vehicle (0.5 ml of 0.9% saline solution containing 2% DMSO) were given i.p. 30 min before zymosan i.p. injection (0.5 ml of a 2 mg/ml suspension in 0.9% w/v saline). Mice were killed by inhalation of CO2 at the indicated time points followed by a peritoneal lavage with 3 ml of cold PBS pH 7.4. Exudates were collected. After centrifugation of the exudates (18,000× g, 5 min, 4° C.), the amounts of cysteinyl-LTs were analyzed in the supernatant by enzyme immunoassay (Enzo Life Sciences GmbH, Lörrach, Germany) according to manufacturer's instructions.

[2] abbreviates: human recombinant 5-LO, read-out: IC50 (nM) 5-LO activity.

Read-outs that look alike come from different tables or passages of the source.

As usually defined, the IC50 is the midpoint of a concentration-inhibition curve. For `C/C(=C\CC/C(C)=C/CCC1(C)CCc2cc(O)c(C)c(C)c2O1)CCC=C(CO)CO` (centres unmarked) [Compound 34, 2-((4E,8E)-11-(6-hydroxy-2,7,8-trimethylchroman-2-yl)-4,8-dimethylundeca-4,8-dien-1-ylidene)propane-1,3-diol], the IC50 in series [1] is 67 ± 54 nM; on human recombinant 5-LO (setting [2]), 110 nM. The Number of cells with HepaRG® cells (0.1 μM) was found to be 4212; in the series on HepaRG® cells (1 μM), 4562; in the series with HepaRG® cells (10 μM) it was 4677.

In the case of `C[C@@H]1C[C@H]2[C@@H]3CCC4=CC(=O)C=C[C@]4(C)[C@@]3(F)[C@@H](O)C[C@]2(C)[C@@]1(O)C(=O)CO` [dexamethasone], the “IL-1β release (%)” value was 68.7 ± 2.4% with IL-1β (1 μM) and 49.9 ± 4.8% in the series with IL-1β (10 μM). For the same molecule, the “TNF-α release (%)” value with TNF-α (1 μM) worked out at 42.2 ± 0.8%; in the series with TNF-α (10 μM) it was 13.3 ± 2.6%. The figures for the “IL-8 release (%)” value with IL-8 (1 μM) and in the series with IL-8 (10 μM) were 83.5 ± 3.2% and 30.6 ± 1.5%, respectively.

As to `C/C(=C/CC/C(C)=C/CC/C(C)=C/CCC1(C)CCc2cc(O)cc(C)c2O1)CO` (centres unmarked) [Compound 23, 2-((3E,7E,11Z)-13-hydroxy-4,8,12-trimethyltrideca-3,7,11-trien-1-yl)-2,8-dimethylchroman-6-ol], the values for the half-maximal inhibitory concentration (IC50) (in series [1]; at human recombinant 5-LO (setting [2])) were 220 ± 40 nM and 137 ± 29 nM, respectively.

For `C/C(=C\CC/C(C)=C/CCC1(C)CCc2c(C)c(O)c(C)c(C)c2O1)CCC=C(CO)CO` (centres unmarked) [Compound 1, 2-((4E,8E)-11-(6-hydroxy-2,5,7,8-tetramethylchroman-2-yl)-4,8-dimethylundeca-4,8-dien-1-ylidene)propane-1,3-diol], the IC50 in series [1] worked out at 19 ± 4 nM; on human recombinant 5-LO (setting [2]) it was 106 ± 29 nM. In addition, the “LTC4 level in the peritoneal exudate” value with LTC4 formation was “the same than the LTC4 level obtained by Zileuton”. In addition, the Number of cells with HepaRG® cells (0.1 μM) is recorded as 4389; with HepaRG® cells (1 μM) it was 4705; in the series with HepaRG® cells (10 μM) it was 4702.

On to `C/C(=C/CC/C(C)=C/CC/C(C)=C/CCC1(C)CCc2cc(O)c(C)c(C)c2O1)CO` (centres unmarked) [Compound 33, 2-((3E,7E,11Z)-13-hydroxy-4,8,12-trimethyltrideca-3,7,11-trien-1-yl)-2,7,8-trimethylchroman-6-ol], for which the results for the IC50 (in series [1]; at human recombinant 5-LO (setting [2])) were 140 ± 21 nM and 120 ± 29 nM, respectively. In addition, the Number of cells in the series on HepaRG® cells (0.1 μM) came to 4363; in the series on HepaRG® cells (1 μM), 4412; in the series with HepaRG® cells (10 μM), 4610.

As for `C/C(=C\CC/C(C)=C/CCC1(C)CCc2c(C)c(O)cc(C)c2O1)CCC=C(CO)CO` (centres unmarked) [Compound 9, 2-((4E,8E)-11-(6-hydroxy-2,5,8-trimethylchroman-2-yl)-4,8-dimethylundeca-4,8-dien-1-ylidene)propane-1,3-diol], the figures for the IC50 (in series [1]; at human recombinant 5-LO) were 114 ± 35 nM and 91 ± 15 nM, respectively. Besides, the Number of cells is on record as 4429 in the series on HepaRG® cells (0.1 μM), 4436 in the series with HepaRG® cells (1 μM) and 4785 in the series with HepaRG® cells (10 μM).

Turning to `C/C(=C\CC/C(C)=C/CCC1(C)CCc2cc(O)cc(C)c2O1)CCC=C(CO)CO` (centres unmarked) [Compound 26, 2-((4E,8E)-11-(6-hydroxy-2,8-dimethylchroman-2-yl)-4,8-dimethylundeca-4,8-dien-1-ylidene)propane-1,3-diol], the “IL-1β release (%)” value in the series with IL-1β (1 μM) was found to be 86 ± 11%. Further, in the series on TNF-α (1 μM), the “TNF-α release (%)” value is given as “n.i.^a”. The “IL-8 release (%)” value in the series with IL-8 (1 μM) is “n.i.^a”. Besides, the “5-LO product formation in neutrophils (A23187) residual activities [% vehicle control]” value is recorded as 17.4 ± 8.8 % vehicle control in series [1] (0.1 μM), 10.0 ± 2.8 % vehicle control in series [1] (1 μM) and 0.0 ± 0.0 % vehicle control in series [1] (10 μM). The “5-LO product formation in neutrophils (AA + A23187) residual activities [% vehicle control]” value in series [1] (0.1 μM) is given as “n.i.^a”; in series [1] (1 μM) it was 15.4 ± 4.4 % vehicle control; in series [1] (10 μM), 0.6 ± 0.6 % vehicle control. For the same molecule, the IC50 in series [1] turned out to be 419 ± 33 nM; on human recombinant 5-LO (setting [2]), 148 ± 35 nM.

Regarding `CC(c1cc2ccccc2s1)N(O)C(N)=O` (centres unmarked) [Zileuton, reference compound], the figures for the Number of cells with HepaRG® cells (0.1 μM), with HepaRG® cells (1 μM) and with HepaRG® cells (10 μM) were 4313, 4244 and 4554, respectively.

On to `CC(=O)N(O)C/C=C/c1cccc(Oc2ccccc2)c1` [BWA4C, N-RE)-3-(3-phenoxyphenye-prop-2-enyllacetohydroxamic acid, reference compound], for which 41 ± 1 nM corresponded to half-maximal inhibition in series [1] (IC50).
